Like-named read-outs stand apart in the source and are kept apart here.
How the values were obtained:
[1] = system: human cerebral vessels (CGRP-induced dilation); experiment: Ex Vivo Human Cerebral Artery Assay, reversal of CGRP-induced relaxation; settings: reversal of 1 nM hCGRP-induced relaxation, vessels pre-contracted with 10 mM KCl
Source text: Rationale and Overview. To provided direct evidence of the ability for novel compounds to reverse CGRP-induced dilation in human cerebral vessels, an ex vivo assay was design. Briefly, isolated vessel rings were mounted in a tissue bath where vessels were pre-contracted with potassium chloride (KCl) and fully dilated with hCGRP, then this relaxation was reversed by the cumulative addition of CGRP-receptor antagonists (complete details follow).
Tissue Samples. Autopsy samples of human arteries were obtained from vendors (ABS Inc. or NDRI). All vessels were transported on ice-cold HEPES buffer (composition in mM: NaCl 130, KCl 4, KH2PO4 1.2, MgSO4 1.2, CaCl2 1.8, Glucose 6, NaHCO3 4, HEPES 10, EDTA 0.025). Upon receipt, the vessels were placed in cold Kreb's buffer (composition in mM: NaCl 118.4, KCl 4.7, KH2PO4 1.2, MgSO4 1.2, CaCl2 1.8, Glucose 10.1, NaHCO3 25) saturated with carbogen (5% CO2 and 95% oxygen).
Isolated Tissue Baths. The vessels were cleaned of connective tissues and cut into cylindrical segments of 4-5 mm in length. The vessels were then mounted in tissue baths between two stainless steel hooks; one of which is fixed and the other of which was connected to a force displacement transducer. The vessel tension was continuously recorded using a data acquisition system (Powerlab, ADInstruments, Mountain View, Calif.) connected to the transducer. The tissue baths containing Krebs buffer and mounted vessels were temperature (37° C.) and pH (7.4) controlled with continuous bubbling of carbogen. The artery segments were allowed to equilibrate for about 30-45 min until a stable resting tone was achieved. Prior to the assay, vessels were primed (conditioned) with 100 mM KCl and subsequently washed. The vessels were pre-contracted with 10 mM KCl and fully dilated with 1 nM hCGRP. Concentration-response curves to CGRP-receptor antagonists were performed by the cumulative addition of drugs in half log units in fully dilated vessels. At each concentration, the effects of the drugs were expressed as % reversal of CGRP-induced relaxation in each vessel. The actual assay and data analysis were performed for each vessel individually, fitting the concentration-response data to a four parameter logistic function by non-linear regression analysis, to estimate the EC50 values.

[2] = target: T1, human CGRP receptor (SK-N-MC cells) (Homo sapiens, UniProt O60894+Q16602); experiment: Schild analysis of CGRP stimulated cAMP production; assay type: cell-based; settings: for slope: Schild plot slope
T1 construct: SK-N-MC cells that endogenously express the human CGRP receptor; endogenous in cells; host or cells: SK-N-MC cells
T1 sequence (Q16602 23-461): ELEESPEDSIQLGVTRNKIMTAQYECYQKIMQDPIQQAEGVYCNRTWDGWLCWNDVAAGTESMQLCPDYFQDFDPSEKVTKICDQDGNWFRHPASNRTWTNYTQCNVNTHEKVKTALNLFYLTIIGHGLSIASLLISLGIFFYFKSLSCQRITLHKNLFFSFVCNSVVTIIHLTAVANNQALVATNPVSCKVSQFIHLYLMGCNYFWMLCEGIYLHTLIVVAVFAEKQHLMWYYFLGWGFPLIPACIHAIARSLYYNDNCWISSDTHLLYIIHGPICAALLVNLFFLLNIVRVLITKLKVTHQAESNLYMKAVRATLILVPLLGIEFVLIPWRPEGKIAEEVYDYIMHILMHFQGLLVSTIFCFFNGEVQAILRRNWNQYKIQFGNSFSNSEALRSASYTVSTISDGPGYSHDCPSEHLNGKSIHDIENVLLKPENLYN
T1 sequence (O60894 27-148): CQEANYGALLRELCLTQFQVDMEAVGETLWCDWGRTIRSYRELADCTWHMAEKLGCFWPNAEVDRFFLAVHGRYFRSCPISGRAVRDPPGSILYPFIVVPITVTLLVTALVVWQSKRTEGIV
Protocol: Functional Antagonism. Antagonism of the compounds of invention was determined by measuring the formation of cyclic AMP (adenosine 3′5′-cyclic monophosphate) in SK-N-MC cells that endogenously express the human CGRP receptor. CGRP receptor complex is coupled with Gs protein and CGRP binding to this complex leads to the cyclic AMP production via Gs—dependent activation of an adenylate cyclase (Juaneda C et al., TiPS, 2000; 21:432-438; incorporated by reference herein). Consequently, CGRP receptor antagonists inhibit CGRP-induced cyclic AMP formation in SK-N-MC cells (Doods H et al., Br J Pharmacol, 2000; 129(3):420-423); incorporated by reference herein). For cyclic AMP measurements SK-N-MC cells were incubated with 0.3 nM CGRP alone or in the presence of various concentrations of the compounds of invention for 30 min at room temperature. Compounds of invention were pre-incubated with SK-N-MC cells for 15 min before the addition of CGRP to allow receptor occupancy (Edvinsson et al., Eur J Pharmacol, 2001, 415:39-44; incorporated by reference herein). Cyclic AMP was extracted using the lysis reagent and its concentration was determined by radioimmunoassay using RPA559 cAMP SPA Direct Screening Assay Kit (Amersham Pharmacia Biotech). IC50 values were calculated using Excel fit.
Schild Analysis. Schild analysis can be used to characterize the nature of antagonism of the compounds of invention. The dose response of CGRP stimulated cAMP production was generated either with CGRP alone, or in the presence of various concentrations of compounds of invention. The antagonist dose is plotted as X against the dose ratio (defined as IC50 of agonist with the presence of the compounds divided by the IC50 of the agonist alone) minus 1 as Y. Linear regression was then performed with both X and Y axis log-transformed. […] Kb is the dissociation constant of the antagonist.

[3] = target: T2, CGRP receptor (SK-N-MC cell membranes) (Homo sapiens, UniProt O60894+Q16602); experiment: CGRP Binding Assay ([125I]-CGRP radioligand binding, SK-N-MC homogenate); settings: displacement of [125I]-CGRP, SK-N-MC homogenate; read-out: CGRP binding IC50
T2 construct: endogenous in cells; host or cells: SK-N-MC cells (membrane homogenate)
T2 sequence (Q16602 23-461): as the sequence (Q16602 23-461) above
T2 sequence (O60894 27-148): as the sequence (O60894 27-148) above

[4] = target: T1, human CGRP receptor (SK-N-MC cells); experiment: Cyclic AMP Assay, functional antagonism of CGRP-induced cyclic AMP formation; assay type: cell-based
In short: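 SK-N-MC cells, which endogenously express human CGRP receptor, stimulated with 0.3 nM CGRP with or without compound for 30 min at room temperature. Cellular cAMP extracted by lysis and quantified by SPA radioimmunoassay; IC50 from inhibition of CGRP-induced cAMP.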

[5] = Schild analysis, dissociation constant of the antagonist, read-out: Kb
[6] = SK-N-MC cells, 0.3 nM CGRP, read-out: cAMP Function IC50

SMILES | EC50 [1] | Kb [2, 5] | slope [2] | IC50 [3] | IC50 [4, 6] | Kb [2] | IC50 [4]
Cc1cc(CC(NC(=O)N2CCC(N3Cc4ccccc4NC3=O)CC2)C(=O)N2CCN(c3ccncc3)CC2)cc2cn[nH]c12 (racemic) [Example 21, (±)-4-(2-Oxo-1,4-dihydro-2H-quinazolin-3-yl)-piperidine-1-carboxylic acid[1-(7-methyl-1H-indazol-5-ylmethyl)-2-oxo-2-(4-pyridin-4-yl-piperazin-1-yl)-ethyl]-amide] | < 10 nM | 0.018 nM | 0.89 | < 10 nM | < 10 nM |  | 
Cc1cc(CC(NC(=O)N2CCC(N3Cc4ccccc4NC3=O)CC2)C(=O)N2CCCCC2)cc2cn[nH]c12 (racemic) [Example 17, (±)-4-(2-Oxo-1,4-dihydro-2H-quinazolin-3-yl)-piperidine-1-carboxylic acid[1-(7-methyl-1H-indazol-5-ylmethyl)-2-oxo-2-piperidin-1-yl-ethyl]-amide] | < 10 nM | 1.1 nM | 0.92 | < 10 nM | < 10 nM |  | 
Cc1cc(CC(CC(=O)N2CCC3(CC2)OC(=O)Nc2ccccc23)C(=O)N2CCC3(CC2)OCCO3)cc2cn[nH]c12 (racemic) [Example 71, (±)-1-(1,4-Dioxa-8-aza-spiro[4.5]dec-8-yl)-2-(7-methyl-1H-indazol-5-ylmethyl)-4-[1′,2′-dihydro-2′-oxospiro-[4H-3′,1-benzoxazine-4,4′-piperidinyl]-butane-1,4-dione] | < 10 nM |  | 0.87 | < 10 nM |  | 2 nM | < 10 nM
Cc1cc(CC(NC(=O)N2CCC(N3Cc4ccccc4NC3=O)CC2)C(=O)N(C)C)cc2cn[nH]c12 (racemic) [Example 18, (±)-4-(2-Oxo-1,4-dihydro-2H-quinazolin-3-yl)-piperidine-1-carboxylic acid[1-dimethylcarbamoyl-2-(7-methyl-1H-indazol-5-yl)-ethyl]-amide] | < 10 nM | 1 nM | 0.8 | < 10 nM | 10 to 100 nM |  | 
CCc1cc(CC(NC(=O)N2CCC(N3Cc4ccccc4NC3=O)CC2)C(=O)N2CCC(N3CCCCC3)CC2)cc2cn[nH]c12 (racemic) [Example 45, (±)-4-(2-Oxo-1,4-dihydro-2H-quinazolin-3-yl)-piperidine-1-carboxylic acid[2-[1,4′]bipiperidinyl-1′-yl-1-(7-ethyl-1H-indazol-5-ylmethyl)-2-oxo-ethyl]-amide] |  |  | 1.4 | < 10 nM |  |  | 
O=C(NC(Cc1ccc2[nH]ccc2c1)C(=O)N1CCC(N2CCCCC2)CC1)N1CCC(n2c(=O)[nH]c3ccccc32)CC1 (racemic) [Example 3, (±)-4-(2-Oxo-2,3-dihydro-benzoimidazol-1-yl)-piperidine-1-carboxylic acid[2-[1,4′]bipiperidinyl-1′-yl-1-(1H-indol-5-ylmethyl)-2-oxo-ethyl]-amide] | 10 to 100 nM | 55 nM | 0.96 | 10 to 100 nM | 10 to 100 nM |  | 
O=C(NC(Cc1ccc2[nH]ccc2c1)C(=O)N1CCC(N2CCCCC2)CC1)N1CCC(N2Cc3ccccc3NC2=O)CC1 (racemic) [Example 5, (±)-4-(2-Oxo-1,4-dihydro-2H-quinazolin-3-yl)-piperidine-1-carboxylic acid[2-[1,4′]bipiperidinyl-1′-yl-1-(1H-indol-5-ylmethyl)-2-oxo-ethyl]-amide] |  | 3 nM | 0.92 | < 10 nM | < 10 nM |  | 
Cc1cc(CC(NC(=O)N2CCC3(CC2)OC(=O)Nc2ccccc23)C(=O)N2CCC(N3CCCCC3)CC2)cc2cn[nH]c12 (racemic) [Example 25, (±)-1-(7-Methyl-1H-indazol-5-ylmethyl)-2-[1,4-bipiperidin]-1-yl-2-oxoethyl]-1′,2′-dihydro-2′-oxospiro-[4H-3′,1-benzoxazine-4,4′-piperidine]-1-carboxamide] | < 10 nM |  |  | < 10 nM | < 10 nM |  | 
Cc1cc(CC(CC(=O)N2CCC(N3Cc4ccccc4NC3=O)CC2)C(=O)N2CCC(C)CC2)cc2cn[nH]c12 (racemic) [Example 74, (±)-2-(7-Methyl-1H-indazol-5-ylmethyl)-1-(4-methyl-piperidin-1-yl)-4-[4-(2-oxo-1,4-dihydro-2H-quinazolin-3-yl)-piperidin-1-yl]-butane-1,4-dione] | < 10 nM |  |  | < 10 nM | < 10 nM |  | 
Cc1cc(CC(CC(=O)N2CCC3(CC2)OC(=O)Nc2ccccc23)C(=O)N(C)C)cc2cn[nH]c12 (racemic) [Example 76, (±)-N,N-Dimethyl-2-(7-methyl-1H-indazol-5-ylmethyl)-4-oxo-4-[1′,2′-dihydro-2′-oxospiro-[4H-3′,1-benzoxazine-4,4′-piperidinyl]-butyramide] | < 10 nM |  |  | 10 to 100 nM | 10 to 100 nM |  | 
O=C(NC(CN1CCc2[nH]ncc2C1)C(=O)N1CCC(N2CCCCC2)CC1)N1CCC(N2Cc3ccccc3NC2=O)CC1 (racemic) [Example 54, (±)-4-(2-Oxo-1,4-dihydro-2H-quinazolin-3-yl)-piperidine-1-carboxylic acid[2-[1,4′]bipiperidinyl-1′-yl-2-oxo-1-(1,4,6,7-tetrahydro-pyrazolo[4,3-c]pyridin-5-ylmethyl)-ethyl]-amide] | < 10 nM |  |  | 10 to 100 nM | 100 to 1000 nM |  | 
O=C(C[C@H](Nc1ccc2[nH]ccc2c1)C(=O)N1CCC(N2CCCCC2)CC1)N1CCC(N2Cc3ccccc3NC2=O)CC1 [Example 86, (L)-1-[1,4′]Bipiperidinyl-1′-yl-2-(1H-indol-5-ylamino)-4-[4-(2-oxo-1,4-dihydro-2H-quinazolin-3-yl)-piperidin-1-yl]-butane-1,4-dione] | 100 to 1000 nM |  |  | 100 to 1000 nM | 10 to 100 nM |  | 
Cc1cc(CC(NC(=O)N2CCC(N3Cc4ccccc4NC3=O)CC2)C(=O)N2CCN(C)CC2)cc2cn[nH]c12 (racemic) [Example 19, (±)-4-(2-Oxo-1,4-dihydro-2H-quinazolin-3-yl)-piperidine-1-carboxylic acid[1-(7-methyl-1H-indazol-5-ylmethyl)-2-(4-methyl-piperazin-1-yl)-2-oxo-ethyl]-amide] | < 10 nM |  |  | < 10 nM | < 10 nM |  | 
Cc1cc(CC(CC(=O)N2CCC3(CC2)OC(=O)Nc2ccccc23)C(=O)N2CCC(N3CCCCC3)CC2)cc2cn[nH]c12 (racemic) [Example 68, (±)-1-[1,4′]Bipiperidinyl-1′-yl-2-(7-methyl-1H-indazol-5-ylmethyl)-4-[1′,2′-dihydro-2′-oxospiro-[4H-3′,1-benzoxazine-4,4′-piperidinyl]-butane-1,4-dione] | < 10 nM |  |  | < 10 nM | < 10 nM |  | 

Reference: patent publication US7842808B2, “Anti-migraine spirocycles” (Bristol-Myers Squibb Company, priority 2002, dated 2010)
